Assay results as given in US20130123185A1, “METHODS OF TREATING AND DIAGNOSING ACUTE CHEST SYNDROME” (EMORY UNIVERSITY, priority 2010, published 2013).
Like-named read-outs stand apart in the source and are kept apart here.

Legend:
[1] = tested on: C57BL/6J, B6.B10ScN-Tlr4lps-del/JthJ and C3H/HeJ mice; type: in vivo
Protocol: The role of TLR-4 in response to an acute increase in free heme was investigated. Wild type C57BL/6J mice and TLR-4 mutant mice B6.B10ScN-Tlr4^lps-del and C3H/HeJ (Poltorak et al. Defective LPS signaling in C3H/HeJ and C57BL/10ScCr mice: mutations in Tlr4 gene. Science. 1998; 282(5396):2085-2088.; Qureshi et al. Endotoxin-tolerant mice have mutations in Toll-like receptor 4 (Tlr4). The J Expt. Med. 1999; 189(4):615-625) were injected intravenously with 210 μmoles/kg hemin, a normally lethal dose. This injection increased free heme concentrations by a magnitude of 50-fold in both wild type and TLR-4 mutant mice (FIG. 6a).
TPH per se, therefore, the involvement of a receptor mediated mechanism was suspected. Several heme receptors have been characterized, including TLR433, which is uniquely expressed by multiple cells in the circulation and therefore accessible to PFPH. Studies were performed in wild-type C57BL/6J mice, and mutant strains, B6.B10ScN-Tlr4lps-del/JthJ and C3H/HeJ, harboring a deletion and a point mutation respectively, in the murine TLR4 gene. Significant elevation of PFPH in these mice required a large dose of heme (210 μmoles/kg) (FIG. 12a), and as expected this amount of heme interfered, transiently with SpO2 measurements characterized by an immediate and dramatic decline. […] This interpretation was supported by a return of SpO2 values to normal in C3H/HeJ but not in the wild-type C57BL/6J mice, indeed, SpO2 deteriorated over time in the latter reminiscent of the decline in SS mice (FIG. 12b). […] These unique pulmonary responses were consistent with survival (FIG. 12d) and lung histology (FIG. 13).

[2] = tested on: non-sickle cell disease mice; settings: hemin 70 μmoles/kg, Vinchi et al.; cited from earlier work
SS mice [3] = tested on: SS mice
NF-κB = NF-κB activation in pulmonary microvascular endothelial cells; type: cell-based; settings: PMVECs, hemin 5 or 10 μM
Excerpt: Additionally, the role of NF-κB in the inflammatory response to free heme that occurs in ACS was investigated. Endothelial TLR4, and not neutrophil TLR4, mediates the early stage of the acute sequestration of neutrophils into the lungs in response to systemic LPS (Andonegui et al. Endothelium-derived Toll-like receptor-4 is the key molecule in LPS-induced neutrophil sequestration into lungs. J Clin Invest. 2003; 111(7):1011-1020; Andonegui et al. Mice that exclusively express TLR4 on endothelial cells can efficiently clear a lethal systemic Gram-negative bacterial infection. J Clin Invest. 2009; 119(7): 1921-1930). Thus, pulmonary microvascular endothelial cells (PMVECs) may play a role in the inflammatory response to free heme. […] These include nuclear translocation of p65 NF-κB in PMVECs as determined by immunofluorescence staining and western blot of nuclear extract (FIGS. 7b and 7c, respectively), luciferase reporter gene activity driven by a promoter harboring NF-κB cis elements in PMVECs (FIG. 7d), and TNF-α production (FIG. 7e).

SS mice [4] = test: TAK-242 pre-treatment before heme in SS mice; type: in vivo, mouse
Protocol: (a, b) The concentration of total and protein-free plasma heme in SS mice following, injections of TAK-242 or intralipid in the absence of exogenous heme. (c, d) Percentage oxygen saturation and breath rate monitored in real-time in SS mice at different stages of the experiment as indicated. Data shown are for a total of nine SS mice (intralipid; n=4, TAK-242; n=5). (e) Survival of SS mice pre-treated with TAK-242 (3 or 5 mg/kg) for 1 h prior to intravenous administration of heme (n=7-13). Control mice were treated with intralipid (n=17). (f) Representative lung H&E staining of SS mice treated with intralipid or TAK-242 one hour prior to administration of heme (35 μmoles/kg). Cumulative lung injury score (n=3). *p<0.05, **p<0.01 and ***p<0.001.
TAK-242 (resatorvid) is a small molecule that binds to Cys747 of the intracellular domain of TLR4 and inhibits downstream signaling. It inhibits the production of lipopolysaccharide (LPS)-induced inflammatory mediators, and it improves survival in LPS-induced sepsis. […] One hour prior to heme administration, a cohort of SS mice were intravenously administered 5 mg/kg of TAK-242, or intralipid. […] Heme had no impact on SpO2 in the majority of TAK-242 treated SS mice (5/6), however it caused an initially subtle yet sustained decrease that deteriorated over time in the intralipid treated mice (FIG. 14c). […] TAK-242 protected 83% of the SS mice from heme induced lethality, compared to 20% in the group given intralipid. These survival data were similar to those obtained in subsequent experiments focused on heme induced lethality (TAK-242; 5/7 (71%) protection, intralipid; 3/12 […] protection). The combined data is shown in FIG. 14e, and is supported by histological analysis (FIG. 14f).

SS mice [5] = test: Acute prophylaxis with recombinant human hemopexin before heme in SS mice; type: in vivo, mouse; settings: 1 mg intravenously immediately before heme 35 μmoles/kg
Protocol: Mice were injected with rhHx (n=6), vehicle (n=5) or human IgG (n=3) immediately before administration of heme (35 μmoles/kg). *p<0.05, **p<0.01 and ***p<0.001.
The hemopexin-treated mice were all protected while the control mice succumbed to heme (FIG. 11). Thus, acute prophylaxis using hemopexin may be an attractive therapeutic strategy to block the deleterious effects of PFPH during severe episodes of acute hemolysis in SCD.

In the case of Iron mesoporphyrin [Fe(III)MPP-IX], the survival ([1]; mouse, in vivo) is reported as “no impact on survival”.

In the case of `C=CC1=C(C)c2cc3[nH]c(cc4[nH]c(cc5nc(cc1n2)C(C)=C5C=C)c(C)c4CCC(=O)[O-])c(CCC(=O)[O-])c3C.[Na+].[Na+]` [Na-PPIX, sodium protoporphyrin IX], the survival ([1]; injected at the LD100 of heme, C57BL/6J mice) is reported as “no impact on survival”.

In the case of Fe(III)PPIX [hemin], the “increase of lung permeability” value [2] is listed as 2 fold, the mortality ([1]; hemin 210 μmoles/kg, both types of TLR-4 mutant mice) is listed as 0% and the mortality rate ([1]; hemin 210 μmoles/kg, wild type C57BL/6J mice, after 90 minutes) is listed as 100%. The “serum ALT” value (SS mice [3]; SS mice treated with heme, at the median time of death) was “normal”, the “plasma hemopexin level after heme injection” value (SS mice [3]; SS mice, heme 35 μmoles/kg, 5-30 min) was “virtually undetectable levels” and the survival (SS mice [3]; heme 35 μmoles/kg, SS mice with the highest baseline hemopexin level) was 50%. The survival (SS mice [3]; heme 35 μmoles/kg, SS mice with the lowest baseline hemopexin (<0.1 mg/ml)) was “none”, the survival (SS mice [3]; heme 70 μmoles/kg, AS and AA mice) was “no impact on survival” and the “total plasma heme (TPH) and protein-free plasma heme (PFPH)” value (SS mice [3]; heme 17.5-70 μmoles/kg intravenously, SS mice) was “raised TPH and PFPH in a dose-dependent manner”. The lethality (SS mice [3]; heme 17.5-70 μmoles/kg, SS mice) was “caused lethality in SS mice in a dose-dependent manner”, the “oxygen saturation (SpO2)” value (SS mice [3]; hemin 70 μmoles/kg intravenous, SS mice) was “sharp drop” and the “increase of plasma concentration of heme” value (SS mice [3]; hemin 70 μmoles/kg intravenously, SS and control mice) was 20 fold. For the same molecule, the “change in SpO2 or breath rate” value (SS mice [3]; hemin 70 μmoles/kg, AS mice) was “no significant change”, the change in hematocrit (SS mice [3]; hemin 70 μmoles/kg, SS or control mice) was “did not significantly change” and the lethality (SS mice [3]; hemin 70 μmoles/kg, Townes and Berkeley SCD mice) was “caused sudden death”. For the same molecule, the mortality (SS mice [3]; hemin 70 μmoles/kg, adult SS mice aged 13-27 weeks) was 100%, the survival (SS mice [3]; hemin 70 μmoles/kg, young SS mice 5-7 weeks old) was 80% and the “NF-κB activation (p65 nuclear translocation, luciferase reporter, TNF-α production)” value (NF-κB) was “dose-dependently activates”.

For `CCOC(=O)C1=CCCC[C@H]1S(=O)(=O)Nc1ccc(F)cc1Cl` [TAK-242, resatorvid], the “development of heme induced ALI” value (SS mice [4]; SCD mice, pre-treatment 1 h before heme) was “prevents”, the “scavenging of heme (total and protein-free plasma heme)” value (SS mice [4]; SS mice, absence of exogenous heme) was “did not alter” and the “protection from heme induced lethality” value (SS mice [4]; TAK-242 5 mg/kg 1 h before heme, SS mice, first cohort) was 83%. For the same molecule, the “SS mice in which heme had no impact on SpO2” value (SS mice [4]; TAK-242 5 mg/kg intravenously 1 h before heme) was 5/6, the “breath rate after heme” value (SS mice [4]; TAK-242 5 mg/kg intravenously 1 h before heme, SS mice) was “remained essentially the same” and the “protection from heme induced lethality” value (SS mice [4]; subsequent experiments focused on lethality, SS mice) was 71%.

B1: recombinant human hemopexin: recombinant human hemopexin, a protein that binds free heme for transport to the liver (protein, UniProt P02790 24-462, looked up)
Hemopexin: TPLPPTSAHGNVAEGETKPDPDVTERCSDGWSFDATTLDDNGTMLFFKGEFVWKSHKWDRELISERWKNFPSPVDAAFRQGHNSVFLIKGDKVWVYPPEKKEKGYPKLLQDEFPGIPSPLDAAVECHRGECQAEGVLFFQGDREWFWDLATGTMKERSWPAVGNCSSALRWLGRYYCFQGNQFLRFDPVRGEVPPRYPRDVRDYFMPCPGRGHGHRNGTGHGNSTHHGPEYMRCSPHLVLSALTSDNHGATYAFSGTHYWRLDTSRDGWHSWPIAHQWPQGPSAVDAAFSWEEKLYLVQGTQVYVFLTKGGYTLVSGYPKRLEKEVGTPHGIILDSVDAAFICPGSSRLHIMAGRRLWWLDLKSGAQATWTELPWPHEKVDGALCMEKSLGPNSCSANGPGLYLIHGPNLYCYSDVEKLNAAKALPQPQNVTSLLGCTH
For B1, the “protection from heme induced lethality” value (SS mice [5]) was “all protected” and the “protection from heme induced lethality” value (SS mice [5]; listed as rhHx) was “protects”.
